Compound: COc1cc([C@@H]2c3cc4c(cc3[C@@H](O[C@@H]3O[C@@H]5CO[C@@H](C)O[C@H]5[C@H](O)[C@H]3O)[C@H]3COC(=O)[C@H]23)OCO4)cc(OC)c1O [Etoposide] + CCNC(=O)c1noc(-c2cc(C(C)C)c(O)cc2O)c1-c1ccc(CN2CCOCC2)cc1 [Luminespib] (partner 0.01 µM)
Test: relative viability (nuclei count vs DMSO), 5 days (fraction); higher = more cells survive
Settings: first compound 0.01 µM
In short: (§1)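 Lung cancer cell lines were seeded in 1536-well plates and dosed by pin tool the next day, with either a single drug or a fixed anchor-drug dose combined with five library-drug doses (not always all listed) spaced in √10 steps. Five days later, one step fixed the cells and stained their nuclei (final 0.05% Triton X-100, 1% formaldehyde, 1 ug/ml Hoechst), and nuclei were counted on 4× images. Relative viability is the nuclei count in treated wells divided by the count in vehicle wells, and each value is the median of duplicate plates.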

Point of comparison: NCI-H727, relative viability 0.53. Against it:
- LOU-NH91 — lower, 0.318
- NCI-H3122 — lower, 0.072
- HOP-62 — higher, 0.855
- HCC-44 — higher, 1.03
- LU99A — lower, 0.279
- BEN — lower, 0.235
- HARA — lower, 0.403
- NCI-H441 — lower, 0.307
- LCLC-97TM1 — higher, 0.788
- NCI-H2009 — higher, 1.03
- A-427 — higher, 0.832
- NCI-H460 — lower, 0.0412
- NCI-H1734 — lower, 0.226
- NCI-H520 — lower, 0.204

Same assay, conditions: first compound 0.03162 µM

Point of comparison: LCLC-97TM1, relative viability 0.78. Against it:
- LOU-NH91 — lower, 0.38
- NCI-H3122 — lower, 0.0992
- HOP-62 — higher, 0.977
- HCC-44 — higher, 0.84
- LU99A — lower, 0.255
- BEN — lower, 0.583
- HARA — higher, 0.999
- NCI-H441 — lower, 0.28
- NCI-H2009 — higher, 0.961
- A-427 — higher, 1.02
- NCI-H460 — lower, 0.0382
- NCI-H727 — lower, 0.294
- NCI-H1734 — lower, 0.192
- NCI-H520 — lower, 0.198

Same assay, conditions: first compound 0.1 µM

Point of comparison: LOU-NH91, relative viability 0.306. Against it:
- NCI-H3122 — lower, 0.0664
- HOP-62 — higher, 0.866
- HCC-44 — higher, 0.774
- LU99A — lower, 0.246
- HARA — higher, 0.682
- NCI-H441 — higher, 0.331
- LCLC-97TM1 — higher, 0.465
- NCI-H2009 — higher, 1
- A-427 — higher, 0.61
- NCI-H460 — lower, 0.0395
- NCI-H1734 — lower, 0.182

Same assay, conditions: first compound 0.3162 µM

Point of comparison: A-427, relative viability 0.382. Against it:
- LOU-NH91 — lower, 0.311
- NCI-H3122 — lower, 0.116
- HOP-62 — higher, 0.638
- HCC-44 — higher, 0.411
- LU99A — lower, 0.22
- BEN — lower, 0.206
- HARA — lower, 0.226
- NCI-H441 — lower, 0.259
- LCLC-97TM1 — lower, 0.175
- NCI-H2009 — higher, 0.644
- NCI-H460 — lower, 0.0281
- NCI-H727 — lower, 0.3
- NCI-H1734 — lower, 0.185
- NCI-H520 — lower, 0.218

Same assay, conditions: first compound 1 µM

Point of comparison: NCI-H727, relative viability 0.418. Against it:
- LOU-NH91 — lower, 0.284
- NCI-H3122 — lower, 0.076
- HOP-62 — lower, 0.307
- HCC-44 — lower, 0.279
- LU99A — lower, 0.217
- BEN — lower, 0.245
- HARA — lower, 0.106
- NCI-H441 — lower, 0.256
- LCLC-97TM1 — lower, 0.154
- NCI-H2009 — higher, 0.476
- A-427 — lower, 0.182
- NCI-H460 — lower, 0.0302
- NCI-H1734 — lower, 0.168
- NCI-H520 — lower, 0.219

Compound: COc1cc([C@@H]2c3cc4c(cc3[C@@H](O[C@@H]3O[C@@H]5CO[C@@H](C)O[C@H]5[C@H](O)[C@H]3O)[C@H]3COC(=O)[C@H]23)OCO4)cc(OC)c1O [Etoposide] + C[C@]1(O)C[C@@H](c2nc(-c3ccc4ccc(-c5ccccc5)nc4c3)c3c(N)nccn32)C1 [Linsitinib] (partner 1 µM)
Test: as above
Settings: first compound 0.01 µM
In short: as §1

Point of comparison: HCC-44, relative viability 0.61. Against it:
- LOU-NH91 — higher, 0.892
- NCI-H3122 — higher, 1.04
- HOP-62 — higher, 0.963
- LU99A — lower, 0.495
- BEN — higher, 0.695
- HARA — higher, 0.892
- NCI-H441 — lower, 0.51
- NCI-H2009 — higher, 1.09
- A-427 — higher, 1.17
- NCI-H460 — higher, 0.684
- NCI-H727 — lower, 0.239
- NCI-H1734 — higher, 0.746
- NCI-H520 — higher, 0.927

Same assay, conditions: first compound 0.03162 µM

Point of comparison: NCI-H2009, relative viability 1.24. Against it:
- LOU-NH91 — lower, 0.943
- NCI-H3122 — lower, 1.05
- HOP-62 — lower, 1.05
- HCC-44 — lower, 0.745
- LU99A — lower, 0.614
- BEN — lower, 0.983
- HARA — lower, 1.15
- NCI-H441 — lower, 0.474
- LCLC-97TM1 — lower, 0.193
- A-427 — lower, 1.16
- NCI-H460 — lower, 0.601
- NCI-H727 — lower, 0.286
- NCI-H1734 — lower, 0.932
- NCI-H520 — lower, 1.04

Same assay, conditions: first compound 0.1 µM

Point of comparison: NCI-H2009, relative viability 1.25. Against it:
- LOU-NH91 — lower, 0.702
- NCI-H3122 — lower, 1.03
- HOP-62 — lower, 0.657
- HCC-44 — lower, 0.729
- LU99A — lower, 0.333
- HARA — lower, 1.04
- NCI-H441 — lower, 0.292
- LCLC-97TM1 — lower, 0.122
- A-427 — lower, 0.815
- NCI-H460 — lower, 0.447
- NCI-H727 — lower, 0.3
- NCI-H1734 — lower, 0.725
- NCI-H520 — lower, 1.1

Same assay, conditions: first compound 0.3162 µM

Point of comparison: NCI-H520, relative viability 0.895. Against it:
- LOU-NH91 — lower, 0.728
- NCI-H3122 — lower, 0.88
- HOP-62 — lower, 0.631
- HCC-44 — lower, 0.535
- LU99A — lower, 0.264
- BEN — lower, 0.78
- HARA — lower, 0.738
- NCI-H441 — lower, 0.179
- LCLC-97TM1 — lower, 0.151
- NCI-H2009 — lower, 0.839
- A-427 — lower, 0.841
- NCI-H460 — lower, 0.0349
- NCI-H727 — lower, 0.337
- NCI-H1734 — lower, 0.688

Same assay, conditions: first compound 1 µM

Point of comparison: HCC-44, relative viability 0.267. Against it:
- LOU-NH91 — higher, 0.538
- NCI-H3122 — higher, 0.449
- HOP-62 — higher, 0.269
- LU99A — lower, 0.201
- BEN — higher, 0.681
- HARA — lower, 0.182
- NCI-H441 — lower, 0.148
- LCLC-97TM1 — lower, 0.1
- NCI-H2009 — higher, 0.401
- A-427 — lower, 0.243
- NCI-H460 — lower, 0.0212
- NCI-H727 — higher, 0.349
- NCI-H1734 — higher, 0.509
- NCI-H520 — higher, 0.9

Compound: COc1cc([C@@H]2c3cc4c(cc3[C@@H](O[C@@H]3O[C@@H]5CO[C@@H](C)O[C@H]5[C@H](O)[C@H]3O)[C@H]3COC(=O)[C@H]23)OCO4)cc(OC)c1O [Etoposide] + CC(=O)Nc1cccc(-n2c(=O)n(C3CC3)c(=O)c3c(Nc4ccc(I)cc4F)n(C)c(=O)c(C)c32)c1 [Trametinib] (partner 0.02 µM)
Test: as above
Settings: first compound 0.01 µM
In short: as §1

Cell Line LOU-NH91 has a relative viability of 0.731.
